Data from ChEMBL document CHEMBL1155951 (Bioorg Med Chem Lett, 2008).
pIC50: −log10 of the molar value.

How the values were obtained:
[1] = test system: Plasmodium falciparum; experiment: Antiplasmodial activity against chloroquine-sensitive Plasmodium falciparum F32 after 48 hrs by [3H]hypoxanthine uptake; type: functional, organism-based
[2] = test system: Plasmodium falciparum; experiment: Antiplasmodial activity against chloroquine-resistant Plasmodium falciparum W2 after 48 hrs by [3H]hypoxanthine uptake; type: functional, organism-based
[3] = test system: Plasmodium falciparum; experiment: Antiplasmodial activity against chloroquine-resistant Plasmodium falciparum FcM29 after 48 hrs by [3H]hypoxanthine uptake; type: functional, organism-based
[4] = test system: Plasmodium falciparum; experiment: Antiplasmodial activity against chloroquine-resistant Plasmodium falciparum FcB1 after 48 hrs by [3H]hypoxanthine uptake; type: functional, organism-based; conditions: FcB1/Columbia
[5] = test system: Vero; experiment: Cytotoxicity against african green monkey Vero cells assessed as [3H]hypoxanthine incorporation after 48 hrs; type: cell-based; conditions: Chlorocebus sabaeus
[6] = test system: Plasmodium falciparum; experiment: Antiplasmodial activity against chloroquine-resistant Plasmodium falciparum W2 gametocytes after 48 hrs by microscopy; type: functional, organism-based; conditions: W2, 48 h
[7] = Selectivity index, ratio of IC50 for african green monkey (Cercopithecus aethiops) Vero cells to IC50 for chloroquine-sensitive Plasmodium falciparum F32; type: toxicity, cell-based; conditions: read-out: Ratio IC50
[8] = Selectivity index, ratio of IC50 for african green monkey (Cercopithecus aethiops) Vero cells to IC50 for chloroquine-resistant Plasmodium falciparum W2; type: toxicity, cell-based; conditions: read-out: Ratio IC50
[9] = Selectivity index, ratio of IC50 for african green monkey (Cercopithecus aethiops) Vero cells to IC50 for chloroquine-resistant Plasmodium falciparum FcM29; type: toxicity, cell-based; conditions: read-out: Ratio IC50
[10] = Selectivity index, ratio of IC50 for african green monkey (Cercopithecus aethiops) Vero cells to IC50 for chloroquine-resistant Plasmodium falciparum FcB1; type: toxicity, cell-based; conditions: read-out: Ratio IC50

SMILES	pIC50 [1]	pIC50 [2]	pIC50 [3]	pIC50 [4]	pIC50 [5]	pIC50 [6]	selectivity ratio [7]	selectivity ratio [8]	selectivity ratio [9]	selectivity ratio [10]
Cc1nc2c(ccc3cccnc32)c2occc12	5.93	5.96	6.42	6.01	4.42	5.26	32	34	99	39
COc1cc(NC(C)CCCN)c2ncccc2c1 (stereo not given) [PRIMAQUINE]	–	–	–	–	3.47	–	–	–	–	–
COc1cc2cccnc2c2nc(C)c3cc[nH]c3c12	6.39	5.89	5.89	6.66	4.53	5.01	72	23	23	132
Cc1nc2c(ccc3cccnc32)c2[nH]ccc12	5.88	5.38	5.03	5.94	4.21	4.97	47	15	7	54
COc1cc2cccnc2c2nc(C)c(CCCl)c(Cl)c12	5.11	5.18	5.30	5.32	–	–	–	–	–	–
COc1cc2cccnc2c2nc(C)c3ccoc3c12	6.07	6.03	6.32	6.03	4.21	5.43	72	66	129	39
